US6727270B2, “Pyrrolylalkylidene-hydrazinecarboximidamide derivatives as 5-hydroxytryptamine-6 ligands” (Wyeth, priority 2002, dated 2004)
pKi: −log10 of the molar value. Where a name gives a salt, the structure may show the parent alone.

System: not given
Assay: not given
Conditions: not given

| melting point | Compound |
| --- | --- |
| 220 to 221 °C | C/C(=N\NC(=N)N)c1ccn(S(=O)(=O)c2ccccc2)c1 (as salt: hydrochloride) [Example 14, 2-{(E)-1-[1-(phenylsulfonyl)-1H-pyrrol-3-yl]ethylidene}hydrazinecarboximidamide] |
| 277 to 279 °C | C/C(=N\NC(=N)N)c1ccn(S(=O)(=O)c2ccc(C)cc2)c1 (as salt: hydrochloride) [Example 15, 2-{(E)-1-[1-(4-methylphenylsulfonyl)-1H-pyrrol-3-yl]ethylidene}hydrazine-carboximidamide] |
| 285 °C (dec.) | C/C(=N\NC(=N)N)c1ccn(S(=O)(=O)c2sc3ccc(Cl)cc3c2C)c1 (as salt: hydrochloride) [Example 17] |
| 198 to 200 °C | C/C(=N\NC(=N)N)c1ccn(S(=O)(=O)c2ccc(N)cc2)c1 (as salt: hydrochloride) [Example 18, 2-((E)-1-{1-[(4-aminophenyl)sulfonyl]-1H-pyrrol-3-yl}ethylidene)-1-hydrazine-carboximidamide] |
| 225 °C (dec.) | C/C(=N\NC(=N)N)c1ccn(S(=O)(=O)c2sc(N)nc2C)c1 (as salt: hydrochloride) [Example 19, 2-((E)-1-{1-[(2-amino-4-methyl-1,3-thiazol-5-yl)sulfonyl]-1H-pyrrol-3-yl}ethylidene)-1-hydrazinecarboximidamide] |

Molecular target: T1, human cloned 5-HT6 receptors (Homo sapiens, UniProt P50406)
T1 construct: expressed in transfected cells; host or cells: Hela cells
Assay: 5-HT6 binding affinity, [3H]-LSD displacement on membranes of Hela cells expressing human cloned 5-HT6 receptors
Conditions: [3H]-LSD 3.0 nM, Hela cell membranes, 120 min at room temperature
Method: Comparative Evaluation of 5-HT6 Binding Affinity of Test Compounds
The affinity of test compounds for the serotonin 5-HT6 receptor is evaluated in the following manner. Cultured Hela cells expressing human cloned 5-HT6 receptors are harvested and centrifuged at low speed (1,000×g) for 10.0 min to remove the culture media. The harvested cells are suspended in half volume of fresh physiological phosphate buffered saline solution and recentrifuged at the same speed. This operation is repeated. The collected cells are then homogenized in ten volumes of 50 mM Tris.HCl (pH 7.4) and 0.5 mM EDTA. The homogenate is centrifuged at 40,000×g for 30.0 min and the precipitate is collected. The obtained pellet is resuspended in 10 volumes of Tris.HCl buffer and recentrifuged at the same speed. The final pellet is suspended in a small volume of Tris.HCl buffer and the tissue protein content is determined in aliquots of 10-25 μl volumes. Bovine Serum Albumin is used as the standard in the protein determination according to the method described in Lowry et al., J. Biol. Chem., 193:265 (1951). The volume of the suspended cell membranes is adjusted to give a tissue protein concentration of 1.0 mg/ml of suspension. The prepared membrane suspension (10 times concentrated) is aliquoted in 1.0 ml volumes and stored at −70° C. until used in subsequent binding experiments.
The reaction is allowed to proceed in the dark for 120 min at room temperature, at which time, the bound ligand-receptor complex is filtered off on a 96 well unifilter with a Packard Filtermate® 196 Harvester. The bound complex caught on the filter disk is allowed to air dry and the radioactivity is measured in a Packard TopCount® equipped with six photomultiplier detectors, after the addition of 40.0 μl Microscint®-20 scintillant to each shallow well. The unifilter plate is heat-sealed and counted in a PackardTopCount® with a tritium efficiency of 31.0%.
Binding in the presence of varying concentrations of test compound is expressed as a percentage of specific binding in the absence of test compound. The results are plotted as log % bound versus log concentration of test compound. […] A linear regression line of data points is plotted, from which the IC50 value is determined and the Ki value is determined based upon the following equation: […]
where L is the concentration of the radioactive ligand used and KD is the dissociation constant of the ligand for the receptor, both expressed in nM.

T1 sequence (P50406 whole entry): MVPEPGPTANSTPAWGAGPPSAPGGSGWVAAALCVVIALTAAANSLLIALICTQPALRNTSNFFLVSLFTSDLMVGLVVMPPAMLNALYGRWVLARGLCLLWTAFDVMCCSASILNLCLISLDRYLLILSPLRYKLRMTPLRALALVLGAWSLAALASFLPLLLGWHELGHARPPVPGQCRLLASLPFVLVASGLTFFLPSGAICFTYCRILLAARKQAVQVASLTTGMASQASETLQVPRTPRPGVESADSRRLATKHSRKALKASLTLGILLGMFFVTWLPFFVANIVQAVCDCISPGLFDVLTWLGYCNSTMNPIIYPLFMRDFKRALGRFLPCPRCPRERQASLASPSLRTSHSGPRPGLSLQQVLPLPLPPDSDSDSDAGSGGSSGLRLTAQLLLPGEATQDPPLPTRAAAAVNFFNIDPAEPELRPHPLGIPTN

| pKi | Compound |
| --- | --- |
| 7.43 | N=C(N)N/N=C1\CCCc2c1ccn2S(=O)(=O)c1ccccc1 [Example 7, 2-[1-(Phenylsulfonyl)-1,5,6,7-tetrahydro-4H-indol-4-ylidine]-1-hydrazinecarboximidamide Hydrochloride] |
| 8.22 | C/C(=N\NC(=N)N)c1c(C)cn(S(=O)(=O)c2ccccc2)c1C [Example 13, 2-{(E)-1-[2,4-Dimethyl-1-(phenylsulfonyl)-1H-pyrrol-3-yl]ethylidine} hydrazinecarboximidamide Hydrochloride] |
| 8.82 | C/C(=N\NC(=N)N)c1ccn(S(=O)(=O)c2ccccc2)c1 [Example 14, 2-{(E)-1-[1-(phenylsulfonyl)-1H-pyrrol-3-yl]ethylidene}hydrazinecarboximidamide] |
| 8.26 | C/C(=N\NC(=N)N)c1ccn(S(=O)(=O)c2ccc(C)cc2)c1 [Example 15, 2-{(E)-1-[1-(4-methylphenylsulfonyl)-1H-pyrrol-3-yl]ethylidene}hydrazine-carboximidamide] |
| 7.49 | C/C(=N\NC(=N)N)c1ccn(S(=O)(=O)c2sc3ccc(Cl)cc3c2C)c1 [Example 17] |
| 9.22 | C/C(=N\NC(=N)N)c1ccn(S(=O)(=O)c2ccc(N)cc2)c1 [Example 18, 2-((E)-1-{1-[(4-aminophenyl)sulfonyl]-1H-pyrrol-3-yl}ethylidene)-1-hydrazine-carboximidamide] |
| 8.43 | C/C(=N\NC(=N)N)c1ccn(S(=O)(=O)c2sc(N)nc2C)c1 [Example 19, 2-((E)-1-{1-[(2-amino-4-methyl-1,3-thiazol-5-yl)sulfonyl]-1H-pyrrol-3-yl}ethylidene)-1-hydrazinecarboximidamide] |

| Compound | pKi |
| --- | --- |
| 2-{(E)-1-[1-(naphthylsulfonyl)-1H-pyrrol-3-yl]ethylidene}-1-hydrazine-carboximidamide [Example 16] | 8.70 |
